Data published in paper PMC10176470, “Engaging a Non-catalytic Cysteine Residue Drives Potent and Selective Inhibition of Caspase-6” (Journal of the American Chemical Society, 2023).
Read-outs that look alike come from different tables or passages of the source.

Key:
Assay type in all cases: cell-based
[1] = target: T1, proteins of HEK293T cells transiently overexpressing caspase-6 (Homo sapiens, UniProt P54136); details: exp_ref Probe; protein RARS (P54136); analysis C6
T1 sequence (P54136 1-660): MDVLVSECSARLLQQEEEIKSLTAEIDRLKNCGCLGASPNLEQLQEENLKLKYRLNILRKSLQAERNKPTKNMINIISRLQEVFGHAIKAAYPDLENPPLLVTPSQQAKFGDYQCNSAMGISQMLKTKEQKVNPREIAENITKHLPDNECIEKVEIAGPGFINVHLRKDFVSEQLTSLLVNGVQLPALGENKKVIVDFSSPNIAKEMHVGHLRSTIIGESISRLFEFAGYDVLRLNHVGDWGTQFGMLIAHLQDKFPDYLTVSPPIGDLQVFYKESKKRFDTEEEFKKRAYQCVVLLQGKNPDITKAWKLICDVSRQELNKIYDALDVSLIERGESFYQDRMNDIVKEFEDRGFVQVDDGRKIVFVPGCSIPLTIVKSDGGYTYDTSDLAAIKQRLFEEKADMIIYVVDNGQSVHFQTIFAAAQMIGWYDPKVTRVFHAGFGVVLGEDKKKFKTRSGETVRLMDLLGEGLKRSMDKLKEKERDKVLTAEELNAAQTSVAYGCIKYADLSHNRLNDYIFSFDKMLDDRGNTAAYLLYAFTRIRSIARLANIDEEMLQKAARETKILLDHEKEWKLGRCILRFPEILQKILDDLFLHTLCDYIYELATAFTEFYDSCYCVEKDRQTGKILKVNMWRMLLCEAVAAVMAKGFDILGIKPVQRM

[2] = target: T2, proteins of HEK293T cells transiently overexpressing caspase-6 (Homo sapiens, UniProt P30519); details: protein HMOX2 (P30519)
T2 sequence (P30519 1-316): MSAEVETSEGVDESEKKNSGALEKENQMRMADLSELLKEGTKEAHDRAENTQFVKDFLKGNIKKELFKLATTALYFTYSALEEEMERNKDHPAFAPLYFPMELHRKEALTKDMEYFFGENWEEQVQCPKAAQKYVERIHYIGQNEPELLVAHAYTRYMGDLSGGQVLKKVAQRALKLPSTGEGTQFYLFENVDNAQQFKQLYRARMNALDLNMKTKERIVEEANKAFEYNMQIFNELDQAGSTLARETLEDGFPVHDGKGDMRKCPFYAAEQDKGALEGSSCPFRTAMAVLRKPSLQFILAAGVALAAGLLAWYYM

[3] = target: T3, proteins of HEK293T cells transiently overexpressing caspase-6 (Homo sapiens, UniProt P55060); details: protein CSE1L (P55060)
T3 sequence (P55060 1-971): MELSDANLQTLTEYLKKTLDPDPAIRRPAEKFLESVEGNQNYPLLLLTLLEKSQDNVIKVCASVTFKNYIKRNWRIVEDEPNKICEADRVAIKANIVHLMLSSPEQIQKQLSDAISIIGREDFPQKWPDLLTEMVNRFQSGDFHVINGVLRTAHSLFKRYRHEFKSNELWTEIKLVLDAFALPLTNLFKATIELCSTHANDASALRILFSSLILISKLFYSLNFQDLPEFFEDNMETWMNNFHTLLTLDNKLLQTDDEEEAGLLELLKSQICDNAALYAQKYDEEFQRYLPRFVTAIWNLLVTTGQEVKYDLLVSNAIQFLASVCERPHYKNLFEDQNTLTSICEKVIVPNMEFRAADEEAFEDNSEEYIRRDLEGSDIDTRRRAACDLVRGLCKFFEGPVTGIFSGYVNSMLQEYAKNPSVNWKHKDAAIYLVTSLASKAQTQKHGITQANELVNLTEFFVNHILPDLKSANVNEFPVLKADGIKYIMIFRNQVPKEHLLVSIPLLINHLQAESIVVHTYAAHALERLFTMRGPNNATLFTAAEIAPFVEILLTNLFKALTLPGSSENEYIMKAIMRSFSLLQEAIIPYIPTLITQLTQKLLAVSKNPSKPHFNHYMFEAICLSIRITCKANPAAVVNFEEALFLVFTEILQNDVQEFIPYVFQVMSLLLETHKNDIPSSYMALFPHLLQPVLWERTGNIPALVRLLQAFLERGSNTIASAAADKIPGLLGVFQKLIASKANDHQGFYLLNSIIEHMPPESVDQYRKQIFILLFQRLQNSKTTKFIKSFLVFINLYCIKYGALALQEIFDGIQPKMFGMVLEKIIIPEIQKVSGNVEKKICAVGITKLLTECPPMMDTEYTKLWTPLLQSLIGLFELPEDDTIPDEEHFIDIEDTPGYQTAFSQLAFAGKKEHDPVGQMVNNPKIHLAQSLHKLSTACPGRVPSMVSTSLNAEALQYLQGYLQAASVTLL

[4] = target: proteins of HEK293T cells transiently overexpressing caspase-6 (Homo sapiens, UniProt P53985); details: exp_ref Probe; protein SLC16A1 (P53985); analysis C6
[5] = target: proteins of HEK293T cells transiently overexpressing caspase-6 (Homo sapiens, UniProt Q8IWS0); details: exp_ref Probe; protein PHF6 (Q8IWS0); analysis C6
Chain of proteins of HEK293T cells transiently overexpressing caspase-6 (Homo sapiens, UniProt Q8IWS0) (Q8IWS0 whole entry): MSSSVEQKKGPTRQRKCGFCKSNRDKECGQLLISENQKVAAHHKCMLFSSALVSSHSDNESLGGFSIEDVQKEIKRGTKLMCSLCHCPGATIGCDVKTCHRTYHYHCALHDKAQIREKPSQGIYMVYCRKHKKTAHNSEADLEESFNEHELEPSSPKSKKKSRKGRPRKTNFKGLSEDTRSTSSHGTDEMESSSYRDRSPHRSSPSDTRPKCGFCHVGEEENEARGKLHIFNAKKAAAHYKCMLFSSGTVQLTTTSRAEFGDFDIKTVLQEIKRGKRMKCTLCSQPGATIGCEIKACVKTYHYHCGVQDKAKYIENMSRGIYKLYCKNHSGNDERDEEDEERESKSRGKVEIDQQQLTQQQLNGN

Chain of proteins of HEK293T cells transiently overexpressing caspase-6 (Homo sapiens, UniProt P53985) (P53985 whole entry): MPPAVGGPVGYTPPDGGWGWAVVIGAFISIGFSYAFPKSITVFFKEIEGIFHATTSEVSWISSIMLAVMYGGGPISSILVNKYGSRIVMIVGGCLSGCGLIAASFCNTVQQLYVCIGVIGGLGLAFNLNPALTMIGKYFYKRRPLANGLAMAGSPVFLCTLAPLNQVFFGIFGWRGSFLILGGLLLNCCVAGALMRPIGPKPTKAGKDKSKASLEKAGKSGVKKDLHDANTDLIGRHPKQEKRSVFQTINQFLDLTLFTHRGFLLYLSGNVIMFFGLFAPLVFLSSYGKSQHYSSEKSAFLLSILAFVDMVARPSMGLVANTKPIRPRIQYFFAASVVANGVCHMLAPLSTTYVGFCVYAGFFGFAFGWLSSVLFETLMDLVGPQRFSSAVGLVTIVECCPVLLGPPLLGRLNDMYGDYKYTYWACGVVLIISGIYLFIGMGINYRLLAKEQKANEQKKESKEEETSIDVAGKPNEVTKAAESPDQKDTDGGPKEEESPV

C#CCOc1ccc([C@@H]2C[C@@H](C(=O)Nc3ccc(OC(F)(F)F)cc3)CN(S(=O)(=O)C=C)C2)cc1 (relative stereo) [13-t]
enrich.exp.med [1]: 0.9191 | enrich.exp.med.lin [2]: 4.772 | enrich.exp.med.log2 [2]: 2.255 | enrich.exp.med.lin ([2]; Expt Probe, analysis C6): 4.772 | enrich.exp.med.log2 ([2]; Expt Probe, analysis C6): 2.255 | enrich.exp.med ([2]; exp_ref Probe, analysis C6): 2.255 | enrich.exp.med ([3]; exp_ref Probe, analysis C6): 1.237 | enrich.exp.med.lin [3]: 2.357 | enrich.exp.med.log2 [3]: 1.237 | enrich.exp.med [4]: -0.3557 | enrich.exp.med [5]: 1.065
